Measurements from patent US20210387954A1, “OXADIAZOLES AS FUNGICIDES” (PI INDUSTRIES LIMITED, priority 2018, published 2021).

What follows are compounds tested on Phakopsora pachyrhizi (assay: Phakopsora pachyrhizi test in soybean (greenhouse, preventive)). Settings: 24 h, soybean plants sprayed one day before inoculation, read-out: control compared to the untreated check (efficacy from disease severity rating).
Format: in vivo
Procedure: Compounds were dissolved in 2% DMSO/Acetone and then diluted with water containing emulsifier to the desired test concentration. To test the preventive activity of compounds, healthy young soybean plants, raised in the greenhouse, were sprayed with the active compound solution at the stated application rates inside spray cabinets using hallowcone nozzles. One day after treatment, the plants were inoculated with a suspension containing 2.1×10^6 Phakopsora pachyrhizi spores. The inoculated plants were then kept in the greenhouse chamber at 25° C. temperature and 90% relative humidity for disease expression. A visual assessment of the compound's performance was carried out by rating the disease severity (0-100% scale) on treated plants on 3, 7, 10 and 15 days after application. Efficacy (% control) of the compounds was calculated by comparing the disease rating in the treatment with the one of the untreated control. The treated plants were also assessed for plant compatibility by recording symptoms like necrosis, chlorosis and stunting.

Row | Structure (SMILES) | pest or weed control at 500 ppm
1 | O=C(NCc1ccc(F)cc1)c1ccc(Cc2noc(C(F)(F)F)n2)cc1 [Compound 12, N-(4-fluorobenzyl)-4-((5-(trifluoromethyl)-1,2,4-oxadiazol-3-yl)methyl)benzamide] | > 70%
2 | Cc1ccc(C(=O)Nc2ccc(C(F)(F)c3noc(C(F)(F)F)n3)cc2)cc1 [Compound 38, N-(4-(difluoro(5-(trifluoromethyl)-1,2,4-oxadiazol-3-yl)methyl)phenyl)-4-methylbenzamide] | > 70%
3 | O=C(Nc1ccc(Cc2noc(C(F)(F)F)n2)cc1)c1ccc(Cl)cc1 [Compound 10, 4-chloro-N-(4-((5-(trifluoromethyl)-1,2,4-oxadiazol-3-yl)methyl)phenyl)benzamide] | > 70%
4 | O=C(Nc1ccc(Cc2noc(C(F)(F)F)n2)cc1)c1cccnc1 [Compound 4, N-(4-((5-(trifluoromethyl)-1,2,4-oxadiazol-3-yl)methyl)phenyl)nicotinamide] | > 70%
5 | Fc1ccc(NC(=S)c2ccc(Cc3noc(C(F)(F)F)n3)cc2)cc1 [Compound 67, N-(4-fluorophenyl)-4-((5-(trifluoromethyl)-1,2,4-oxadiazol-3-yl)methyl)benzothioamide] | > 70%
6 | O=C(Cc1ccccc1)Nc1ccc(Cc2noc(C(F)(F)F)n2)cc1 [Compound 6, 2-phenyl-N-(4-((5-(trifluoromethyl)-1,2,4-oxadiazol-3-yl)methyl)phenyl)acetamide] | > 70%
7 | C#CCNC(=O)c1ccc(Cc2noc(C(F)(F)F)n2)cc1 [Compound 50, N-(prop-2-yn-1-yl)-4-((5-(trifluoromethyl)-1,2,4-oxadiazol-3-yl)methyl)benzamide] | > 70%
8 | CC(C)(C)OC(=O)Nc1ccc(C(F)(F)c2noc(C(F)(F)F)n2)cc1 [Compound 30, tert-butyl (4-(difluoro(5-(trifluoromethyl)-1,2,4-oxadiazol-3-yl)methyl)phenyl)carbamate] | > 70%
9 | CNC(=O)c1ccc(Cc2noc(C(F)(F)F)n2)cc1 [Compound 40, N-methyl-4-((5-(trifluoromethyl)-1,2,4-oxadiazol-3-yl)methyl)benzamide] | > 70%
10 | CCN(C)C(=O)c1ccc(Cc2noc(C(F)(F)F)n2)cc1 [Compound 48, N-ethyl-N-methyl-4-((5-(trifluoromethyl)-1,2,4-oxadiazol-3-yl)methyl)benzamide] | > 70%
11 | O=C(Nc1ccc(Cc2noc(C(F)(F)F)n2)cc1)c1ccccc1 [Compound 2, N-(4-((5-(trifluoromethyl)-1,2,4-oxadiazol-3-yl)methyl)phenyl)benzamide] | > 70%
12 | O=C(Nc1ccc(Cc2noc(C(F)(F)F)n2)cc1)c1ccncc1 [Compound 5, N-(4-((5-(trifluoromethyl)-1,2,4-oxadiazol-3-yl)methyl)phenyl)isonicotinamide] | > 70%
13 | O=C(Nc1ccc(Cc2noc(C(F)(F)F)n2)cc1)c1ccc(C(F)(F)F)cc1 [Compound 8, 4-(trifluoromethyl)-N-(4-((5-(trifluoromethyl)-1,2,4-oxadiazol-3-yl)methyl)phenyl)benzamide] | > 70%
14 | COCCNC(=O)c1ccc(Cc2noc(C(F)(F)F)n2)cc1 [Compound 42, N-(2-methoxyethyl)-4-((5-(trifluoromethyl)-1,2,4-oxadiazol-3-yl)methyl)benzamide] | > 70%
15 | CC(C)(C)OC(=O)Nc1ccc(C(=O)c2noc(C(F)(F)F)n2)cc1 [Compound 29, tert-butyl (4-(5-(trifluoromethyl)-1,2,4-oxadiazole-3-carbonyl)phenyl)carbamate] | > 70%
16 | COc1ccc(Cl)c(NC(=O)c2ccc(Cc3noc(C(F)(F)F)n3)cc2)c1 [Compound 18, N-(2-chloro-5-methoxyphenyl)-4-((5-(trifluoromethyl)-1,2,4-oxadiazol-3-yl)methyl)benzamide] | > 70%
17 | C=CCN(C)C(=O)c1ccc(Cc2noc(C(F)(F)F)n2)cc1 [Compound 49, N-allyl-N-methyl-4-((5-(trifluoromethyl)-1,2,4-oxadiazol-3-yl)methyl)benzamide] | > 70%
18 | O=C(Nc1ccc(Cc2noc(C(F)(F)F)n2)cc1)c1ccc(F)cc1 [Compound 9, 4-fluoro-N-(4-((5-(trifluoromethyl)-1,2,4-oxadiazol-3-yl)methyl)phenyl)benzamide] | > 70%
19 | O=C(NCC1CC1)c1ccc(Cc2noc(C(F)(F)F)n2)cc1 [Compound 47, N-(cyclopropylmethyl)-4-((5-(trifluoromethyl)-1,2,4-oxadiazol-3-yl)methyl)benzamide] | > 70%
20 | O=C(c1ccc(Cc2noc(C(F)(F)F)n2)cc1)N1CCCC1 [Compound 45, pyrrolidin-1-yl(4-((5-(trifluoromethyl)-1,2,4-oxadiazol-3-yl)methyl)phenyl)methanone] | > 70%
21 | COCCN(C)C(=O)c1ccc(Cc2noc(C(F)(F)F)n2)cc1 [Compound 46, N-(2-methoxyethyl)-N-methyl-4-((5-(trifluoromethyl)-1,2,4-oxadiazol-3-yl)methyl)benzamide] | > 70%
22 | O=C(Nc1ccc(Cc2noc(C(F)(F)F)n2)cc1)c1ccccn1 [Compound 3, N-(4-((5-(trifluoromethyl)-1,2,4-oxadiazol-3-yl)methyl)phenyl)picolinamide] | > 70%
23 | O=S(=O)(Nc1ccc(Cc2noc(C(F)(F)F)n2)cc1)c1ccccc1 [Compound 68, N-(4-((5-(trifluoromethyl)-1,2,4-oxadiazol-3-yl)methyl)phenyl)benzenesulfonamide] | > 70%
24 | O=C(c1ccc(Cc2noc(C(F)(F)F)n2)cc1)N1CCOCC1 [Compound 13, morpholino(4-((5-(trifluoromethyl)-1,2,4-oxadiazol-3-yl)methyl)phenyl)methanone] | > 70%
25 | O=C(Nc1ccc(C(=O)c2noc(C(F)(F)F)n2)cc1)c1ccncc1 [Compound 27, N-(4-(5-(trifluoromethyl)-1,2,4-oxadiazole-3-carbonyl)phenyl)isonicotinamide] | > 70%

What follows are compounds tested on Colletotrichum capsici (assay: Colletotrichum capsici (anthracnose) in vitro radial growth test on Potato Dextrose Agar). Settings: 300 ppm; radial growth after seven days at 25° C., 60% relative humidity.
Format: cell-based

Row | Structure (SMILES) | control compared to the untreated check
26 | O=C(Cc1ccccc1)Nc1ccc(Cc2noc(C(F)(F)F)n2)cc1 [Compound 6, 2-phenyl-N-(4-((5-(trifluoromethyl)-1,2,4-oxadiazol-3-yl)methyl)phenyl)acetamide] | > 70%

These compounds were tested on Corynespora cassicola (assay: Corynespora cassicola (leaf spot of tomato) in vitro radial growth test on Potato Dextrose Agar). Settings: 300 ppm; radial growth after seven days at 25° C., 70% relative humidity.
Format: cell-based

Row | Structure (SMILES) | control compared to the untreated check
27 | O=S(=O)(Nc1ccc(Cc2noc(C(F)(F)F)n2)cc1)c1ccccc1 [Compound 68, N-(4-((5-(trifluoromethyl)-1,2,4-oxadiazol-3-yl)methyl)phenyl)benzenesulfonamide] | > 70%

These compounds were tested on Alternaria solani (assay: Alternaria solani (early blight of tomato/potato) in vitro radial growth test on Potato Dextrose Agar). Settings: 168 h, radial growth after seven days at 25° C., 60% relative humidity, read-out: control compared to the untreated check.
Format: cell-based

Row | Structure (SMILES) | inhibition of growth at 300 ppm
28 | O=C(NCc1ccc(F)cc1)c1ccc(Cc2noc(C(F)(F)F)n2)cc1 [Compound 12, N-(4-fluorobenzyl)-4-((5-(trifluoromethyl)-1,2,4-oxadiazol-3-yl)methyl)benzamide] | > 70%
29 | COc1ccccc1NC(=O)c1ccc(Cc2noc(C(F)(F)F)n2)cc1 [Compound 19, N-(2-methoxyphenyl)-4-((5-(trifluoromethyl)-1,2,4-oxadiazol-3-yl)methyl)benzamide] | > 70%
30 | O=C(Cc1ccccc1)Nc1ccc(Cc2noc(C(F)(F)F)n2)cc1 [Compound 6, 2-phenyl-N-(4-((5-(trifluoromethyl)-1,2,4-oxadiazol-3-yl)methyl)phenyl)acetamide] | > 70%
31 | Cc1cccc(NC(=S)c2ccc(Cc3noc(C(F)(F)F)n3)cc2)c1 [Compound 64, N-(m-tolyl)-4-((5-(trifluoromethyl)-1,2,4-oxadiazol-3-yl)methyl)benzothioamide] | > 70%
32 | O=C(NCCN1CCOCC1)c1ccc(Cc2noc(C(F)(F)F)n2)cc1 [Compound 21, N-(2-morpholinoethyl)-4-((5-(trifluoromethyl)-1,2,4-oxadiazol-3-yl)methyl)benzamide] | > 70%
33 | O=C(NCc1cccnc1)c1ccc(Cc2noc(C(F)(F)F)n2)cc1 [Compound 16, N-(pyridin-3-ylmethyl)-4-((5-(trifluoromethyl)-1,2,4-oxadiazol-3-yl)methyl)benzamide] | > 70%
34 | O=C(Nc1cncc(Cl)c1)c1ccc(Cc2noc(C(F)(F)F)n2)cc1 [Compound 17, N-(5-chloropyridin-3-yl)-4-((5-(trifluoromethyl)-1,2,4-oxadiazol-3-yl)methyl)benzamide] | > 70%
35 | O=C(Nc1cccc(Cl)c1)c1ccc(Cc2noc(C(F)(F)F)n2)cc1 [Compound 55, N-(3-chlorophenyl)-4-((5-(trifluoromethyl)-1,2,4-oxadiazol-3-yl)methyl)benzamide] | > 70%
36 | Cc1ccc(C(C)NC(=O)c2ccc(Cc3noc(C(F)(F)F)n3)cc2)cc1 (stereo not drawn) [Compound 15, N-(1-(p-tolyl)ethyl)-4-((5-(trifluoromethyl)-1,2,4-oxadiazol-3-yl)methyl)benzamide] | > 70%
